Data taken from patent US9113629B2, “4-amino-6-(4-substituted-phenyl)-picolinates and 6-amino-2-(4-substituted-phenyl)-pyrimidine-4-carboxylates and their use as herbicides” (DOW AGROSCIENCES LLC, priority 2013, dated 2015).

What was measured:
[1] = Post-emergent Test III, herbicidal activity in wheat and barley; type: in vivo, Lolium multiflorum, Lolium rigidum; settings: Lolium multiflorum, post-emergence, 504 h, read-out: Visual Growth Reduction (%) 21 Days After Application LOLSS; for pest or weed control at 35 g/ha: 35 g ai/ha; for pest or weed control at 70 g/ha: 70 g ai/ha; for pest or weed control at 140 g/ha: 140 g ai/ha
Procedure, shortened: (§1)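 Plants at the second to third true-leaf stage, grown in a greenhouse at about 18/17 °C with a 14 h photoperiod, were sprayed post-emergence at 187 L/ha with the high rate and ½× to 1/16× serial dilutions in an acetone/DMSO/crop-oil/surfactant carrier. Injury was rated visually at 21 d on a 0–100% scale, and GR20–GR90 were derived by probit analysis.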

[2] = system: APESV: bentgrass (Apera spica-venti); assay: as above; type: in vivo; settings: for pest or weed control at 35 g/ha / pest or weed control at 70 g/ha / pest or weed control at 140 g/ha: Apera spica-venti, post-emergence, 504 h, read-out: Visual Growth Reduction (%) 21 Days After Application APESV; for pest or weed control at 35 g/ha: 35 g ai/ha; for pest or weed control at 70 g/ha: 70 g ai/ha; for pest or weed control at 140 g/ha: 140 g ai/ha; for GR50 APESV / GR80 APESV: probit analysis, 21 days after application; for GR50 APESV: dose for growth reduction of 50 percent; for GR80 APESV: dose for growth reduction of 80 percent
Procedure, shortened: as §1

[3] = system: HORSS: barley, including spring and winter (Hordeum vulgare); assay: as above; type: in vivo; settings: for pest or weed control at 35 g/ha / pest or weed control at 70 g/ha / pest or weed control at 140 g/ha: Hordeum vulgare, post-emergence, 504 h, read-out: Visual Growth Reduction (%) 21 Days After Application HORSS; for pest or weed control at 35 g/ha: 35 g ai/ha; for pest or weed control at 70 g/ha: 70 g ai/ha; for pest or weed control at 140 g/ha: 140 g ai/ha; for GR20 HORSS: probit analysis, dose for growth reduction of 20 percent, 21 days after application, crop
Procedure, shortened: as §1

[4] = system: KCHSC: kochia (Kochia scoparia); assay: as above; type: in vivo; settings: for pest or weed control at 35 g/ha / pest or weed control at 70 g/ha / pest or weed control at 140 g/ha: Bassia scoparia, post-emergence, 504 h, read-out: Visual Growth Reduction (%) 21 Days After Application KCHSC; for pest or weed control at 35 g/ha: 35 g ai/ha; for pest or weed control at 70 g/ha: 70 g ai/ha; for pest or weed control at 140 g/ha: 140 g ai/ha; for GR50 KCHSC / GR80 KCHSC: probit analysis, 21 days after application; for GR50 KCHSC: dose for growth reduction of 50 percent; for GR80 KCHSC: dose for growth reduction of 80 percent
Procedure, shortened: as §1

[5] = system: LOLSS: ryegrass including, Italian ryegrass (Lolium multiflorum), rigid ryegrass (Lolium rigidum), annual ryegrass (Lolium multiflorum subsp. Gaudini); assay: as above; type: in vivo; settings: probit analysis, 21 days after application; for GR50 LOLSS: dose for growth reduction of 50 percent; for GR80 LOLSS: dose for growth reduction of 80 percent
Procedure, shortened: as §1

[6] = system: MATSS: scented mayweed (Matricaria chamomilla), pineappleweed (Matricaria matricarioides); assay: as above; type: in vivo; settings: for pest or weed control at 35 g/ha / pest or weed control at 70 g/ha / pest or weed control at 140 g/ha: Matricaria chamomilla, post-emergence, 504 h, read-out: Visual Growth Reduction (%) 21 Days After Application MATSS; for pest or weed control at 35 g/ha: 35 g ai/ha; for pest or weed control at 70 g/ha: 70 g ai/ha; for pest or weed control at 140 g/ha: 140 g ai/ha; for GR50 MATSS / GR80 MATSS: probit analysis, 21 days after application; for GR50 MATSS: dose for growth reduction of 50 percent; for GR80 MATSS: dose for growth reduction of 80 percent
Procedure, shortened: as §1

[7] = system: SETVI: green foxtail (Setaria viridis); assay: as above; type: in vivo; settings: for pest or weed control at 35 g/ha / pest or weed control at 70 g/ha / pest or weed control at 140 g/ha: Setaria viridis, post-emergence, 504 h, read-out: Visual Growth Reduction (%) 21 Days After Application SETVI; for pest or weed control at 35 g/ha: 35 g ai/ha; for pest or weed control at 70 g/ha: 70 g ai/ha; for pest or weed control at 140 g/ha: 140 g ai/ha; for GR50 SETVI / GR80 SETVI: probit analysis, 21 days after application; for GR50 SETVI: dose for growth reduction of 50 percent; for GR80 SETVI: dose for growth reduction of 80 percent
Procedure, shortened: as §1

[8] = system: TRZSS: wheat, including spring and winter (Triticum aestivum); assay: as above; type: in vivo; settings: for pest or weed control at 35 g/ha / pest or weed control at 70 g/ha / pest or weed control at 140 g/ha: Triticum aestivum, post-emergence, 504 h, read-out: Visual Growth Reduction (%) 21 Days After Application TRZSS; for pest or weed control at 35 g/ha: 35 g ai/ha; for pest or weed control at 70 g/ha: 70 g ai/ha; for pest or weed control at 140 g/ha: 140 g ai/ha; for GR20 TRZSS: probit analysis, dose for growth reduction of 20 percent, 21 days after application, crop
Procedure, shortened: as §1

## COC(=O)c1nc(-c2ccc(I)cc2)c(F)c(N)c1Cl [Compound 118, Methyl 4-amino-6-(4-iodophenyl)-3-chloro-5-fluoropicolinate]
[1]
  pest or weed control at 35 g/ha: 30 to 44%
  pest or weed control at 70 g/ha: 60 to 74%
  pest or weed control at 140 g/ha: 75 to 84%
[2]
  pest or weed control at 35 g/ha: 60 to 74%
  pest or weed control at 70 g/ha: 75 to 84%
  pest or weed control at 140 g/ha: 85 to 94%
  GR50 APESV: 22 g ai/ha
  GR80 APESV: 60 g ai/ha
[3]
  pest or weed control at 35 g/ha: 85 to 94%
  pest or weed control at 70 g/ha: 85 to 94%
  pest or weed control at 140 g/ha: 85 to 94%
  GR20 HORSS: 1 g ai/ha
[4]
  pest or weed control at 35 g/ha: 85 to 94%
  pest or weed control at 70 g/ha: 85 to 94%
  pest or weed control at 140 g/ha: 95 to 100%
  GR50 KCHSC: 3 g ai/ha
  GR80 KCHSC: 17 g ai/ha
[5]
  GR50 LOLSS: 49 g ai/ha
  GR80 LOLSS: 121 g ai/ha
[6]
  pest or weed control at 35 g/ha: 60 to 74%
  pest or weed control at 70 g/ha: 75 to 84%
  pest or weed control at 140 g/ha: 85 to 94%
  GR50 MATSS: 14 g ai/ha
  GR80 MATSS: 60 g ai/ha
[7]
  pest or weed control at 35 g/ha: 0 to 29%
  pest or weed control at 70 g/ha: 30 to 44%
  pest or weed control at 140 g/ha: 60 to 74%
  GR50 SETVI: 91 g ai/ha
  GR80 SETVI: 184 g ai/ha
[8]
  pest or weed control at 35 g/ha: 75 to 84%
  pest or weed control at 70 g/ha: 85 to 94%
  pest or weed control at 140 g/ha: 85 to 94%
  GR20 TRZSS: 0 g ai/ha

## COC(=O)c1nc(-c2ccc(Br)cc2)c(F)c(N)c1Cl [Compound 138, Methyl 4-amino-6-(4-bromophenyl)-3-chloro-5-fluoropicolinate]
[1]
  pest or weed control at 35 g/ha: 60 to 74%
  pest or weed control at 70 g/ha: 75 to 84%
  pest or weed control at 140 g/ha: 85 to 94%
[2]
  pest or weed control at 35 g/ha: 85 to 94%
  pest or weed control at 70 g/ha: 85 to 94%
  pest or weed control at 140 g/ha: 95 to 100%
  GR50 APESV: 2 g ai/ha
  GR80 APESV: 12 g ai/ha
[3]
  pest or weed control at 35 g/ha: 85 to 94%
  pest or weed control at 70 g/ha: 85 to 94%
  pest or weed control at 140 g/ha: 95 to 100%
  GR20 HORSS: 1 g ai/ha
[4]
  pest or weed control at 35 g/ha: 95 to 100%
  pest or weed control at 70 g/ha: 95 to 100%
  pest or weed control at 140 g/ha: 95 to 100%
  GR50 KCHSC: 1 g ai/ha
  GR80 KCHSC: 4 g ai/ha
[5]
  GR50 LOLSS: 20 g ai/ha
  GR80 LOLSS: 66 g ai/ha
[6]
  pest or weed control at 35 g/ha: 60 to 74%
  pest or weed control at 70 g/ha: 85 to 94%
  pest or weed control at 140 g/ha: 85 to 94%
  GR50 MATSS: 16 g ai/ha
  GR80 MATSS: 51 g ai/ha
[7]
  pest or weed control at 35 g/ha: 85 to 94%
  pest or weed control at 70 g/ha: 85 to 94%
  pest or weed control at 140 g/ha: 95 to 100%
  GR50 SETVI: 8 g ai/ha
  GR80 SETVI: 32 g ai/ha
[8]
  pest or weed control at 35 g/ha: 85 to 94%
  pest or weed control at 70 g/ha: 85 to 94%
  pest or weed control at 140 g/ha: 85 to 94%
  GR20 TRZSS: 1 g ai/ha

## COC(=O)c1nc(-c2ccc(C#N)cc2)c(F)c(N)c1Cl [Compound 142]
[1]
  pest or weed control at 35 g/ha: 0 to 29%
  pest or weed control at 70 g/ha: 0 to 29%
  pest or weed control at 140 g/ha: 0 to 29%
[2]
  pest or weed control at 35 g/ha: 0 to 29%
  pest or weed control at 70 g/ha: 0 to 29%
  pest or weed control at 140 g/ha: 0 to 29%
  GR50 APESV: >140 g ai/ha
  GR80 APESV: >140 g ai/ha
[3]
  pest or weed control at 35 g/ha: 0 to 29%
  pest or weed control at 70 g/ha: 0 to 29%
  pest or weed control at 140 g/ha: 0 to 29%
  GR20 HORSS: 57 g ai/ha
[4]
  pest or weed control at 35 g/ha: 45 to 59%
  pest or weed control at 70 g/ha: 60 to 74%
  pest or weed control at 140 g/ha: 60 to 74%
  GR50 KCHSC: 17 g ai/ha
  GR80 KCHSC: >140 g ai/ha
[5]
  GR50 LOLSS: >140 g ai/ha
  GR80 LOLSS: >140 g ai/ha
[6]
  pest or weed control at 35 g/ha: 0 to 29%
  pest or weed control at 70 g/ha: 0 to 29%
  pest or weed control at 140 g/ha: 30 to 44%
  GR50 MATSS: >140 g ai/ha
  GR80 MATSS: >140 g ai/ha
[7]
  pest or weed control at 35 g/ha: 0 to 29%
  pest or weed control at 70 g/ha: 0 to 29%
  pest or weed control at 140 g/ha: 0 to 29%
  GR50 SETVI: >140 g ai/ha
  GR80 SETVI: >140 g ai/ha
[8]
  pest or weed control at 35 g/ha: 0 to 29%
  pest or weed control at 70 g/ha: 0 to 29%
  pest or weed control at 140 g/ha: 45 to 59%
  GR20 TRZSS: >140 g ai/ha

## Nc1c(F)c(-c2ccc(OC(F)F)cc2)nc(C(=O)O)c1Cl [Compound 143]
[1]
  pest or weed control at 35 g/ha: 0 to 29%
  pest or weed control at 70 g/ha: 30 to 44%
  pest or weed control at 140 g/ha: 45 to 59%
[2]
  pest or weed control at 35 g/ha: 60 to 74%
  pest or weed control at 70 g/ha: 60 to 74%
  pest or weed control at 140 g/ha: 75 to 84%
  GR50 APESV: 31 g ai/ha
  GR80 APESV: 129 g ai/ha
[3]
  pest or weed control at 35 g/ha: 60 to 74%
  pest or weed control at 70 g/ha: 75 to 84%
  pest or weed control at 140 g/ha: 85 to 94%
  GR20 HORSS: 2 g ai/ha
[4]
  pest or weed control at 35 g/ha: 30 to 44%
  pest or weed control at 70 g/ha: 30 to 44%
  pest or weed control at 140 g/ha: 45 to 59%
  GR50 KCHSC: >140 g ai/ha
  GR80 KCHSC: >140 g ai/ha
[5]
  GR50 LOLSS: 116 g ai/ha
  GR80 LOLSS: >140 g ai/ha
[6]
  pest or weed control at 35 g/ha: 0 to 29%
  pest or weed control at 70 g/ha: 60 to 74%
  pest or weed control at 140 g/ha: 60 to 74%
  GR50 MATSS: 67 g ai/ha
  GR80 MATSS: >140 g ai/ha
[7]
  pest or weed control at 35 g/ha: 45 to 59%
  pest or weed control at 70 g/ha: 45 to 59%
  pest or weed control at 140 g/ha: 60 to 74%
  GR50 SETVI: 52 g ai/ha
  GR80 SETVI: >140 g ai/ha
[8]
  pest or weed control at 35 g/ha: 60 to 74%
  pest or weed control at 70 g/ha: 75 to 84%
  pest or weed control at 140 g/ha: 75 to 84%
  GR20 TRZSS: 0 g ai/ha
